# Source: patent US12162867B2, “Inhibitors of RNA helicase DHX9 and uses thereof” (ACCENT THERAPEUTICS, INC., priority 2022, dated 2024)
# pEC50, pIC50: −log10 of the molar value. Like-named read-outs stand apart in the source and are kept apart here.
# Key:
# Assay type in all cases: cell-based
# NCI-H747 cells = experiment: DHX9 cellular proliferation assay (CellTiter-Glo), NCI-H747 (CRC-MSS); conditions: Homo sapiens, performed at Pharmaron, read-out: H747 (CRC-MSS) Antiproliferative IC50
# [1] = system: circBRIP1 in HCT116 cells; experiment: DHX9 circBRIP1 cellular target engagement TaqMan Multiplex assay (qPCR); conditions: Homo sapiens, read-out: DHX9 Cellular Target Engagement EC50
# LS411N cells = experiment: DHX9 cellular proliferation assay (CellTiter-Glo), LS411N (CRC-MSI); conditions: Homo sapiens, LS-411N, LS411N, performed at Pharmaron, read-out: LS411N (CRC-MSI-H) Antiproliferative IC50
# [2] = HCT-116, 72 h, circBRIP1, HCT116 cells, 72 hours, Taqman assay (marked *)
# [3] = HCT-116, circBRIP1, HCT116 cells, * Taqman assay was used
SMILES,"pIC50 (NCI-H747 cells; NCI-H747, NCI-H747, CRC-MSS)","pEC50 [1, 2]",pIC50 (LS411N cells; CRC-MSI-H),"pIC50 (NCI-H747 cells; NCI-H747, NCI-H747)","pEC50 [1, 3]",pIC50 (LS411N cells)
CCOc1cnc(-c2cc(C(=O)Nc3cc(Cl)cc(NS(=O)(=O)CC)c3)sc2C)nc1 [Example 365],< 5.00,7.47,6.94,,,
CS(=O)(=O)Nc1cc(Cl)cc(NC(=O)c2cc(-c3ncc(C(F)(F)F)cn3)cs2)c1 [Example 369],< 5.00,7.06,6.64,,,
Cc1cc(C#N)cnc1-c1cc(C(=O)Nc2cc(Cl)cc(NS(C)(=O)=O)c2)sc1C [Example 376],< 5.00,7.16,6.52,,,
Cc1sc(C(=O)Nc2cc(Cl)cc(NS(C)(=O)=O)c2)cc1-c1ccc(C#N)cn1 [Example 377],< 5.00,7.43,6.85,,,
CC(C)(C)Oc1cnc(-c2csc(C(=O)Nc3cc(Cl)cc(NS(C)(=O)=O)c3)c2)nc1 [Example 379],5.33,7.25,7.08,,,
Cc1sc(C(=O)Nc2cc(Cl)cc(NS(C)(=O)=O)c2)cc1-c1ccc(OC(C)(C)C)cn1 [Example 380],5.44,7.60,7.27,,,
Cc1sc(C(=O)Nc2cc(Cl)cc(NS(C)(=O)=O)c2)cc1-c1ncc(OC(C)(C)C)cc1F [Example 381],6.02,6.74,6.46,,,
Cn1cc(C(=O)Nc2cc(Cl)cc(NS(C)(=O)=O)c2)cc1-c1ccc(N2CCCC2)cn1 [Example 402],,,,5.15,7.16,6.78
CCS(=O)(=O)Nc1cc(Cl)cc(NC(=O)c2cc(-c3ccc(N4CC(F)(F)C4)cn3)n(C)c2)c1 [Example 403],,,,5.13,7.00,6.64
COC1CN(c2cnc(-n3cc(C(=O)Nc4cc(Cl)cc(NS(C)(=O)=O)c4)cc3C)nc2)C1 [Example 404],,,,< 5.00,7.45,6.86
Cc1cc(C(=O)Nc2cc(Cl)cc(NS(C)(=O)=O)c2)cn1-c1ccc(N2CC3COCC3C2)cn1 (stereo not drawn) [Example 405],,,,< 5.00,7.58,6.94
Cc1cc(C(=O)Nc2cc(Cl)cc(NS(C)(=O)=O)c2)cn1-c1ncc(N2CC3(C2)CC(F)(F)C3)cn1 [Example 413],,,,5.66,7.38,6.86
Cc1cc(C(=O)Nc2cc(Cl)cc(NS(C)(=O)=O)c2)cn1-c1ncc(N2CC(F)(F)C2)cc1C#N [Example 415],,,,5.15,7.16,6.30
Cc1cc(C(=O)Nc2cc(Cl)cc(NS(C)(=O)=O)c2)cn1-c1ncc(N2CC(F)(F)C2)cc1F [Example 420],,,,5.41,7.30,6.45
COc1cc(N2CC(F)(F)C2)cnc1-n1cc(C(=O)Nc2cc(Cl)cc(NS(C)(=O)=O)c2)cc1C [Example 421],,,,< 5.00,7.71,6.94
CCS(=O)(=O)Nc1cc(Cl)cc(NC(=O)c2cc(C)n(-c3ncc(N4CC(F)(F)C4)cn3)c2)c1 [Example 423],,,,5.10,7.29,6.57
Cc1sc(C(=O)Nc2cc(Cl)cc(NS(C)(=O)=O)c2)cc1-c1ncc(OC2CCC2)cn1 [Example 452],,,,< 5.00,7.19,6.65
CCOc1cnc(-c2cc(C(=O)Nc3cc(Cl)cc(NS(C)(=O)=O)c3)cn2C)c(F)c1 [Example 453],,,,5.18,7.26,6.66
COc1cnc(-c2cc(C(=O)Nc3cc(Cl)cc(NS(C)(=O)=O)c3)cn2C)c(F)c1 [Example 454],,,,5.24,7.74,6.66
CCOc1cnc(-c2cc(C(=O)Nc3cc(Cl)cc(NS(C)(=O)=O)c3)sc2C)c(F)c1 [Example 456],,,,5.71,7.48,6.68
CC(C)Oc1cnc(-c2csc(C(=O)Nc3cc(Cl)cc(NS(C)(=O)=O)c3)c2)nc1 [Example 457],,,,5.32,7.07,7.12
CC(C)Oc1ccc(-c2csc(C(=O)Nc3cc(Cl)cc(NS(C)(=O)=O)c3)c2)nc1 [Example 459],,,,5.58,7.24,7.03
COc1cc(N2CC(F)(F)C2)cnc1-c1cc(C(=O)Nc2cc(Cl)cc(NS(C)(=O)=O)c2)cn1C [Example 462],,,,< 5.00,7.59,6.59
CCS(=O)(=O)Nc1cc(Cl)cc(NC(=O)c2cc(-c3ncc(N4CC(F)(F)C4)cn3)c(C)s2)c1 [Example 463],,,,< 5.00,7.74,7.23
COC(=O)N1CCN(c2cnc(-c3cc(C(=O)Nc4cc(Cl)cc(NS(C)(=O)=O)c4)cn3C)c(F)c2)CC1 [Example 464],,,,< 5.00,7.76,6.61

SMILES,"pIC50 (NCI-H747 cells; NCI-H747, NCI-H747, CRC-MSS)","pEC50 [1, 2]",pIC50 (LS411N cells; CRC-MSI-H),"pIC50 (NCI-H747 cells; NCI-H747, NCI-H747)","pEC50 [1, 3]",pIC50 (LS411N cells)
COC1CN(c2ccc(-c3cc(C(=O)Nc4cc(Cl)cc(NS(C)(=O)=O)c4)cn3C)nc2)C1 [Example 465],,,,< 5.00,7.45,6.94
Cn1cc(C(=O)Nc2cc(Cl)cc(NS(C)(=O)=O)c2)cc1-c1ncc(N2CC(F)C2)cc1F [Example 466],,,,5.31,7.28,6.46
Cn1cc(C(=O)Nc2cc(Cl)cc(NS(C)(=O)=O)c2)cc1-c1ncc(N2CCC(F)(F)CC2)cc1F [Example 469],,,,5.42,7.08,6.28
Cc1sc(C(=O)Nc2cc(Cl)cc(NS(C)(=O)=O)c2)cc1-c1ncc(N2CCC(F)(F)CC2)cc1F [Example 471],,,,5.05,7.56,7.14
Cc1sc(C(=O)Nc2cc(Cl)cc(NS(C)(=O)=O)c2)cc1-c1ncc(N2CCC3(CC2)COC3)cc1F [Example 474],,,,5.18,7.87,7.06
Cn1cc(C(=O)Nc2cc(Cl)cc(NS(C)(=O)=O)c2)cc1-c1ncc(N2CCC3(CC2)COC3)cc1F [Example 475],,,,5.06,7.50,7.09
Cc1sc(C(=O)Nc2cc(Cl)cc(NS(C)(=O)=O)c2)cc1-c1ncc(N2CC3C(C2)C3(C)C)cc1F (stereo not drawn) [Example 476],,,,5.38,6.97,6.85
Cc1sc(C(=O)Nc2cc(Cl)cc(NS(C)(=O)=O)c2)cc1-c1ncc(N2CCC3(CC2)CC3(F)F)cc1F [Example 478],,,,5.32,6.99,6.59
Cc1sc(C(=O)Nc2cc(Cl)cc(NS(C)(=O)=O)c2)cc1-c1ncc(N2CCC(F)(F)C2)cn1 [Example 479],,,,5.13,7.77,7.43
Cc1sc(C(=O)Nc2cc(Cl)cc(NS(C)(=O)=O)c2)cc1-c1ncc(N2CCC3(C2)CC3(F)F)cc1F (stereo not drawn) [Example 480],,,,< 5.00,7.25,6.82
Cc1sc(C(=O)Nc2cc(Cl)cc(NS(C)(=O)=O)c2)cc1-c1ncc(N2CCCC(F)(F)C2)cc1F [Example 482],,,,5.94,7.45,7.18
Cn1cc(C(=O)Nc2cc(Cl)cc(NS(C)(=O)=O)c2)cc1-c1ncc(N2CCCC(F)(F)C2)cc1F [Example 483],,,,5.77,7.21,7.00
Cc1sc(C(=O)Nc2cc(Cl)cc(NS(C)(=O)=O)c2)cc1-c1ncc(N2CCC(F)(F)C2)cc1F [Example 484],,,,5.59,7.50,7.18
Cc1sc(C(=O)Nc2cc(Cl)cc(NS(C)(=O)=O)c2)cc1-c1ccc(N2CCC(F)(F)C2)cn1 [Example 485],,,,5.69,7.91,7.23
CS(=O)(=O)Nc1cc(Cl)cc(NC(=O)c2cc(-c3ncc(N4CC(F)(F)C4)cn3)cs2)c1 [Example 486],,,,5.70,7.51,6.95
Cc1sc(C(=O)Nc2cc(Cl)cc(NS(C)(=O)=O)c2)cc1-c1ncc(N2CC(C(F)(F)F)C2)cn1 [Example 489],,,,5.69,7.65,7.29
Cn1cc(C(=O)Nc2cc(Cl)cc(NS(C)(=O)=O)c2)cc1-c1ncc(N2CC3(C2)CC(F)(F)C3)cn1 [Example 492],,,,< 5.00,7.35,6.68
Cn1cc(C(=O)Nc2cc(Cl)cc(NS(C)(=O)=O)c2)cc1-c1ncc(N2CC(C(F)(F)F)C2)cn1 [Example 493],,,,< 5.00,7.66,6.88
Cn1cc(C(=O)Nc2cc(Cl)cc(NS(C)(=O)=O)c2)cc1-c1ncc(N2CCC3(C2)CC3(F)F)cn1 (stereo not drawn) [Example 494],,,,< 5.00,7.37,6.89
Cc1sc(C(=O)Nc2cc(Cl)cc(NS(C)(=O)=O)c2)cc1-c1ccc(N2CC(C(F)(F)F)C2)cn1 [Example 496],,,,5.69,7.63,7.32
Cn1cc(C(=O)Nc2cc(Cl)cc(NS(C)(=O)=O)c2)cc1-c1ccc(N2CC(C(F)(F)F)C2)cn1 [Example 497],,,,5.60,7.36,6.77
Cc1sc(C(=O)Nc2cc(Cl)cc(NS(C)(=O)=O)c2)cc1-c1ccc(N2CC3(C2)CC(F)(F)C3)cn1 [Example 499],,,,< 5.00,7.61,7.18
Cc1sc(C(=O)Nc2cc(F)cc(NS(C)(=O)=O)c2)cc1-c1ncc(N2CC(C(F)(F)F)C2)cc1F [Example 501],,,,5.14,7.03,6.56
CS(=O)(=O)Nc1cc(Cl)cc(NC(=O)c2cc(-c3ncc(N4CC(C(F)(F)F)C4)cn3)n(CC(F)F)c2)c1 [Example 508],,,,5.19,7.20,6.97
